Experimental data reported in patent US20090248141A1, “Shape Memory Polymer Medical Devices” (THE REGENTS OF THE UNIVERSITY OF COLORADO, priority 2006, published 2009).

Test: Cytotoxicity tests of photoinitiator in polymer system
Format: cell-based
Settings: photoinitiator at about 0.01-1 wt % of the polymer system
Experimental: A UV-Lamp (Model B100AP; Black-Ray) was used to photopolymerize the solutions for 10 minutes at an intensity of 10 mW/cm^2. The mould is slowly but constantly rotated during photopolymerization. After processing of all materials, polymers were heat treated at 90° C. for 1 hour to ensure the complete conversion of monomers. The photoinitiator 2,2-dimethoxy-2-phenylacetephenone was used although a variety of other initiators can also be used. […] Glass transition temperature (Tg) and rubbery modulus can be controlled by, for example, changing the weight percent (wt %) of the crosslinker, for example, PEGDMA (Mn 550) as shown in FIG. 9.

## COC(OC)(C(=O)c1ccccc1)c1ccccc1 [2,2-dimethoxy-2-phenylacetephenone]
  biocompatibility of the polymer (cytotoxicity tests): should not affect the biocompatibility of the polymer
